# Results reported in US8278268B2, “Combination therapy comprising glucose reabsorption inhibitors and PPAR modulators” (Ortho-McNeil Pharmaceutical, Inc., priority 2001, dated 2012).
# How the values were obtained:
# [1] = test system: db/db mice; test: Example 4: 32 day oral dosing of T-1095 +/− MCC-555 in db/db mice; assay type: in vivo; conditions: for % HbA1C +/− SEM / Body Weight Change (g) ± SEM / Glucose / Insulin / Liver Weight (g) ± SEM / TG / Heart Weight (g) ± SEM: 32 day oral dosing
# Description: (§1) To examine the effect of T-1095 in combination with a PPARγ agonist, male db/db mice (6 weeks of age/Jackson Labs, […]), a PPARγ agonist such as MCC-555 (3 mg/kg-30 mg/kg), T-1095 (3-100 mg/kg), or MCC-555 plus T-1095. Mice (n=8 animals/group) received the test compounds or vehicle by oral gavage in a volume of 10 ml/kg of body weight. Body weight was recorded on day 1, prior to dosing, and twice a week for the duration of the study. One hour after the final dose, mice were weighed and anesthetized with CO2/O2 (70:30). Mice were then bled by retro-orbital sinus puncture into 2 mL heparinized polypropylene tubes on ice. Mice were then fasted overnight and bled by tail-clip prior to receiving a glucose challenge (2 g/kg p.o). Blood was collected at 30, 60.120, and 180 minutes after the challenge. Animals were then sacrificed and epididymal fat pads, livers, and hearts were excised, weighed and frozen for histological examination. Plasma samples were then assayed for glucose, HbA1c, insulin, and triglycerides.
# Livers and hearts were excised, weighed and frozen.
# [2] = test system: db/db mice; test: Example 4: plasma glucose AUC following an oral glucose challenge; assay type: in vivo
# Description: as §1
# [3] = test system: female db/db mice; test: Example 2: 11 day oral dosing of T-1095 +/− rosiglitazone in db/db mice; assay type: in vivo
# Description: Mice (n=8 animals/group) received the test compounds or vehicle by oral gavage in a volume of 10 ml/kg of body weight. Body weight was recorded on day 1, prior to dosing, and days 4, 8 and 11. Eighteen hours after the final dose, mice were weighed and anesthetized with CO2/O2 (70:30). Mice were then bled by retro-orbital sinus puncture into 2 mL heparinized polypropylene tubes on ice. Plasma samples were then assayed for glucose, insulin, and triglycerides using Trinder reagent (Sigma Diagnostics), Elisa (Alpco) and GPO-Trinder (Sigma Diagnostics), respectively. Livers and hearts were excised, weighed and frozen.
# (§2) Livers were excised, weighed and frozen. […] Heart weight can be measured in an analogous manner.
# [4] = test system: female db/db mice; test: Example 1: 11 day oral dosing of rosiglitazone +/− T-1095 in db/db mice; assay type: in vivo
# Description: Mice (n=8 animals/group) received the test compounds or vehicle by oral gavage in a volume of 10 ml/kg of body weight. Body weight was recorded on day 1, prior to dosing, and days 4, 8 and 11. Eighteen hours after the final dose, mice were weighed and anesthetized with CO2/O2 (70:30). Mice were then bled by retro-orbital sinus puncture into 2 mL heparinized polypropylene tubes on ice.
# Plasma samples were then assayed for glucose, insulin, and triglycerides using Trinder reagent (Sigma Diagnostics), Elisa (Alpco) and GPO-Trinder (Sigma Diagnostics), respectively.
# as §2
# [5] = test system: diabetic rodent models (STZ-induced diabetic rat, yellow KK mice, db/db mice, Zucker Diabetic Fatty rats and GK rats); conditions: cited from earlier work
smiles,measurement,setting,value
"O=C1NC(=O)C(Cc2ccc3cc(OCc4ccccc4F)ccc3c2)S1 (centres unmarked) [MCC-555, 5-((6-((2-fluorophenyl)methoxy)-2-naphthalenyl)methyl)-2,4-thiazolidinedione, reference compound]",% HbA1C +/− SEM,[1]; 3 mpk MCC-555,4.50 ± 0.17 %
same,Body Weight Change (g) ± SEM,[1]; 3 mpk MCC-555,9.14 ± 1.5 g
same,Glucose,[1]; 3 mpk MCC-555,201.3 ± 24 mg/dL
same,Insulin,[1]; 3 mpk MCC-555,31.7 ± 4.7 ng/dL
same,Liver Weight (g) ± SEM,[1]; 3 mpk MCC-555,2.36 ± 0.22 g
same,TG,[1]; 3 mpk MCC-555,90.20 ± 4.5 mg/dL
same,% HbA1C +/− SEM,[1]; 10 mpk MCC-555,4.10 ± 0.15 %
same,Body Weight Change (g) ± SEM,[1]; 10 mpk MCC-555,9.53 ± 0.9 g
same,Glucose,[1]; 10 mpk MCC-555,155.1 ± 22 mg/dL
same,Heart Weight (g) ± SEM,[1]; 10 mpk MCC-555,0.13 ± 0.01 g
same,Insulin,[1]; 10 mpk MCC-555,11.9 ± 1.4 ng/dL
same,Liver Weight (g) ± SEM,[1]; 10 mpk MCC-555,1.91 ± 0.17 g
same,TG,[1]; 10 mpk MCC-555,73.90 ± 5.4 mg/dL
same,% HbA1C +/− SEM,[1]; 30 mpk MCC-555,4.11 ± 0.14 %
same,Body Weight Change (g) ± SEM,[1]; 30 mpk MCC-555,8.0 ± 0.7 g
same,Glucose,[1]; 30 mpk MCC-555,111.5 ± 8.0 mg/dL
same,Heart Weight (g) ± SEM,[1]; 30 mpk MCC-555,0.12 ± 0.01 g
same,Insulin,[1]; 30 mpk MCC-555,5.40 ± 0.4 ng/dL
same,Liver Weight (g) ± SEM,[1]; 30 mpk MCC-555,1.68 ± 0.1 g
same,TG,[1]; 30 mpk MCC-555,55.30 ± 4.7 mg/dL
same,change in heart weight,"[1]; MCC-555 alone, in this study",did not produce a significant change in heart weight
same,AUC glucose % of Vehicle ± SEM,"[2]; 3 mpk MCC-555, 32 day oral dosing",74.11 ± 7.38 % of Vehicle
same,AUC glucose % of Vehicle ± SEM,"[2]; 10 mpk MCC-555, 32 day oral dosing",71.05 ± 8.37 % of Vehicle
same,AUC glucose % of Vehicle ± SEM,"[2]; 30 mpk MCC-555, 32 day oral dosing",48.03 ± 4.37 % of Vehicle
"CN(CCOc1ccc(CC2SC(=O)NC2=O)cc1)c1ccccn1 (centres unmarked) [Rosi, 5-((4-(2-(methyl-2-pyridinylamino)ethoxy)phenyl)methyl)-2,4-thiazolidinedione]",Body Weight Change,"[3]; Rosi 10 mpk, mean",3.9 g
same,Glucose,"[3]; Rosi 10 mpk, mean",**244 mg/dL
same,Insulin,"[3]; Rosi 10 mpk, mean",*7.4 ng/ml
same,Liver Weight,"[3]; Rosi 10 mpk, mean",2.15 g
same,TG,"[3]; Rosi 10 mpk, mean",*192 mg/dL
same,Glucose,"[4]; 0.1 mpk Rosi, mean",***388.13 mg/dL
same,Insulin,"[4]; 0.1 mpk Rosi, mean",65.75 ng/mL
same,TG,"[4]; 0.1 mpk Rosi, mean",***188.38 mg/dL
same,Glucose,"[4]; 1 mpk Rosi, mean",***246.71 mg/dL
same,Insulin,"[4]; 1 mpk Rosi, mean",***25.43 ng/ml
same,TG,"[4]; 1 mpk Rosi, mean",***199.43 mg/dL
same,Glucose,"[4]; 10 mpk Rosi, mean",***321.63 mg/dL
same,Insulin,"[4]; 10 mpk Rosi, mean",***31.63 ng/ml
same,TG,"[4]; 10 mpk Rosi, mean",***136.25 mg/dL
same,Body Weight Change,"[4]; Rosi 0.1 mpk, −T1095, mean",4.34 g
same,Liver Weight,"[4]; Rosi 0.1 mpk, −T1095, mean",2.31 g
same,Body Weight Change,"[4]; Rosi 1 mpk, −T1095, mean",2.60 g
same,Liver Weight,"[4]; Rosi 1 mpk, −T1095, mean",2.32 g
same,Body Weight Change,"[4]; Rosi 10 mpk, −T1095, mean",4.76 g
same,Liver Weight,"[4]; Rosi 10 mpk, −T1095, mean",2.36 g
COC(=O)OCC1OC(Oc2cc(C)cc(O)c2C(=O)CCc2ccc3occc3c2)C(O)C(O)C1O (centres unmarked) [T-1095],% HbA1C +/− SEM,[1]; 3 mpk T-1095,6.10 ± 0.16%
same,Body Weight Change (g) ± SEM,[1]; 3 mpk T-1095,-6.09 ± 1.9 g
same,Glucose,[1]; 3 mpk T-1095,490.3 ± 36 mg/dL
same,Heart Weight (g) ± SEM,[1]; 3 mpk T-1095,0.16 ± 0.02 g
same,Insulin,[1]; 3 mpk T-1095,10.7 ± 2.2 ng/dL
same,Liver Weight (g) ± SEM,[1]; 3 mpk T-1095,1.51 ± 0.1 g
same,TG,[1]; 3 mpk T-1095,210.90 ± 24 mg/dL
same,% HbA1C +/− SEM,[1]; 10 mpk T-1095,6.00 ± 0.29%
same,Body Weight Change (g) ± SEM,[1]; 10 mpk T-1095,-0.99 ± 1.9 g
same,Glucose,[1]; 10 mpk T-1095,413.1 ± 50 mg/dL
same,Heart Weight (g) ± SEM,[1]; 10 mpk T-1095,0.13 ± 0.01 g
same,Insulin,[1]; 10 mpk T-1095,11.4 ± 3.8 ng/dL
same,Liver Weight (g) ± SEM,[1]; 10 mpk T-1095,1.58 ± 0.08 g
same,TG,[1]; 10 mpk T-1095,178.10 ± 21 mg/dL
same,% HbA1C +/− SEM,[1]; 30 mpk T-1095,5.38 ± 0.23%
same,Body Weight Change (g) ± SEM,[1]; 30 mpk T-1095,-2.44 ± 4.3 g
same,Glucose,[1]; 30 mpk T-1095,380.6 ± 40 mg/dL
same,Heart Weight (g) ± SEM,[1]; 30 mpk T-1095,0.14 ± 0.01 g
same,Insulin,[1]; 30 mpk T-1095,17.7 ± 5.1 ng/dL
same,Liver Weight (g) ± SEM,[1]; 30 mpk T-1095,1.57 ± 0.09 g
same,TG,[1]; 30 mpk T-1095,197.20 ± 26 mg/dL
same,% HbA1C +/− SEM,[1]; 100 mpk T-1095,4.96 ± 0.24 %
same,Body Weight Change (g) ± SEM,[1]; 100 mpk T-1095,-4.83 ± 2.9 g
same,Glucose,[1]; 100 mpk T-1095,367.2 ± 42 mg/dL
same,Heart Weight (g) ± SEM,[1]; 100 mpk T-1095,0.14 ± 0.01 g
same,Insulin,[1]; 100 mpk T-1095,25.5 ± 6.2 ng/dL
same,Liver Weight (g) ± SEM,[1]; 100 mpk T-1095,1.64 ± 0.11 g
same,TG,[1]; 100 mpk T-1095,151.20 ± 17 mg/dL
same,pro-drug conversion,"[5]; in vivo, liver",converted to its active form T-1095A in the liver
same,oral glucose tolerance test and hyperinsulinemic euglycemic clamp,"[5]; in vivo, po",improvement of glucose tolerance and the reduction of insulin resistance
same,adverse signs during treatment,[5]; in vivo,"no observed sign of adding weight, infection in the urinary tracts, electrolyte imbalance in plasma, changes in food intake, acute hypoglycemic shock nor pathological changes in the kidney"
same,elevated blood glucose levels,"[5]; oral administration, rodent models of IDDM and NIDDM",suppress elevated blood glucose levels
same,fed and fasting blood glucose levels and HbA1c,"[5]; treatment for 3 weeks to 6 months, diabetic rodent models",reduced both fed and fasting blood glucose levels and HbA1c
same,"hyperinsulinemia, hypertriglyceridemia, microalbuminuria",[5]; yellow KK mice and other diabetic mice models,"decrease in the hyperinsulinemia, hypertriglyceridemia, and the development of microalbuminuria"
same,AUC glucose % of Vehicle ± SEM,"[2]; 3 mpk T-1095, 32 day oral dosing",95.75 ± 8.45 % of Vehicle
same,AUC glucose % of Vehicle ± SEM,"[2]; 10 mpk T-1095, 32 day oral dosing",76.6 ± 6.85 % of Vehicle
same,AUC glucose % of Vehicle ± SEM,"[2]; 30 mpk T-1095, 32 day oral dosing",73.69 ± 5.7 % of Vehicle
same,AUC glucose % of Vehicle ± SEM,"[2]; 100 mpk T-1095, 32 day oral dosing",49.1 ± 3.21 % of Vehicle
same,Glucose,"[3]; 3 mpk T-1095, mean",286 mg/dL
same,Insulin,"[3]; 3 mpk T-1095, mean",**22.5 ng/ml
same,TG,"[3]; 3 mpk T-1095, mean",263 mg/dL
same,Glucose,"[3]; 10 mpk T-1095, mean",**263 mg/dL
same,Insulin,"[3]; 10 mpk T-1095, mean",30.1 ng/mL
same,TG,"[3]; 10 mpk T-1095, mean",256 mg/dL
same,Glucose,"[3]; 30 mpk T-1095, mean",370 mg/dL
same,Insulin,"[3]; 30 mpk T-1095, mean",23.9 ng/mL
same,TG,"[3]; 30 mpk T-1095, mean",315 mg/dL
same,Glucose,"[3]; 100 mpk T-1095, mean",**242 mg/dL
same,Insulin,"[3]; 100 mpk T-1095, mean",49.1 ng/mL
same,TG,"[3]; 100 mpk T-1095, mean",**243 mg/dL
same,Body Weight Change,"[3]; T-1095 3 mpk, −Rosi, mean",3.0 g
same,Liver Weight,"[3]; T-1095 3 mpk, −Rosi, mean",1.63 g
same,Body Weight Change,"[3]; T-1095 10 mpk, −Rosi, mean",4.3 g
same,Liver Weight,"[3]; T-1095 10 mpk, −Rosi, mean",1.87 g
same,Body Weight Change,"[3]; T-1095 30 mpk, −Rosi, mean",2.4 g
same,Liver Weight,"[3]; T-1095 30 mpk, −Rosi, mean",1.75 g
same,Body Weight Change,"[3]; T-1095 100 mpk, −Rosi, mean",2.3 g
same,Liver Weight,"[3]; T-1095 100 mpk, −Rosi, mean",1.73 g
same,Body Weight Change,"[4]; T1095 100 mpk, mean",3.96 g
same,Liver Weight,"[4]; T1095 100 mpk, mean",1.88 g
same,Glucose,"[4]; T-1095 100 mpk, mean",***405.13 mg/dL
same,Insulin,"[4]; T-1095 100 mpk, mean",93.88 ng/mL
same,TG,"[4]; T-1095 100 mpk, mean",248.88 mg/dL
